Like-named read-outs stand apart in the source and are kept apart here.
Molecular target: human PDHK2 (hPDHK2) (Homo sapiens (Human), UniProt Q15119)
Experiment: Inhibitory action of PDHK activity in vitro (kinase reaction, residual PDH activity measured)
Type: biochemical
[1] = PDHK inhibitory activity (class symbol)
[2] = read-out: PDHK inhibitory activity IC50
[3] = PDHK inhibitory activity, class symbol of IC50

IC50 (PDHK inhibitory activity IC50 (μmol/L)) [nM] | Compound | IC50 [1] [nM] | IC50 [2] [nM] | IC50 [3] [nM] | IC50 (read-out: PDHK inhibitory activity (class symbol)) [nM]
– | OCC(CO)c1noc(-c2cc(F)cc3c2-c2ccccc2C3(O)C(F)(F)F)n1 (single isomer, unassigned) [compound 685] | 100 to 1000 | 338 | – | –
– | COC(=O)Cc1ccc2c(c1)C(O)(C(F)(F)F)c1ccccc1-2 (stereo not shown) [compound 353] | – | 7400 | > 1000 | –
– | CC(C)(C)n1cc(-c2cc(C(N)=O)c3c(c2)C(O)(C(F)(F)F)c2ccccc2-3)cn1 (stereo not shown) [compound 639] | < 100 | 63 | – | –
– | C/C=C/c1cc(-c2cnn(C(CO)CO)c2)c2c(c1)C(O)(C(F)(F)F)c1ccccc1-2 (stereo not shown) [compound 651] | < 100 | 25 | – | –
– | OC1(C(F)(F)F)c2ccccc2-c2ncccc21 (stereo not shown) [compound 1] | – | 2210 | > 1000 | –
– | Cc1cc(-c2cnn(CCO)c2)cc2c1-c1ccccc1C2(O)C(F)(F)F (stereo not shown) [compound 584] | – | 77 | < 100 | –
– | OC1(C(F)(F)F)c2ccccc2-c2ccc(/C=C/c3ccccc3)cc21 (stereo not shown) [compound 252] | – | 1270 | > 1000 | –
– | Nc1cccc2c1-c1ccccc1C2(O)C(F)(F)F (stereo not shown) [compound 20] | – | 3500 | > 1000 | –
– | CC(=O)NCCOc1ccc2c(c1)C(O)(C(F)(F)F)c1ccccc1-2 (stereo not shown) [compound 325] | – | 1080 | > 1000 | –
– | O=C(O)c1ccc2c(c1)C(O)(C(F)(F)F)c1ccccc1-2 (stereo not shown) [compound 24] | – | > 100000 | > 1000 | –
– | O=C(O)c1cccc(-c2ccc3c(c2)C(O)(C(F)(F)F)c2ccccc2-3)c1 (stereo not shown) [compound 155] | – | 805 | 100 to 1000 | –
– | O=C(COc1ccc2c(c1)C(O)(C(F)(F)F)c1ccccc1-2)N1CCOCC1 (stereo not shown) [compound 362] | – | 1080 | > 1000 | –
– | NC(=O)Cn1cc(-c2cc(OCCC34CC5CC(CC(O)(C5)C3)C4)cc3c2-c2ccccc2C3(O)C(F)(F)F)cn1 (single isomer, unassigned) [compound 541] | – | 15 | < 100 | –
– | O=C1COCCN1CCOc1ccc2c(c1)C(O)(C(F)(F)F)c1ccccc1-2 (stereo not shown) [compound 490] | – | 223 | 100 to 1000 | –
– | COc1cc(CO)c2c(c1)C(O)(C(F)(F)F)c1ccccc1-2 (stereo not shown) [compound 627] | – | > 1000 | – | > 1000
– | NC(=O)C1CCCN1C(=O)c1ccc2c(c1)C(O)(C(F)(F)F)c1ccccc1-2 (stereo not shown) [compound 176] | – | 8010 | > 1000 | –
– | Nc1ccc(-c2ccc3c(c2)C(O)(C(F)(F)F)c2ccccc2-3)cc1 (stereo not shown) [compound 193] | – | 560 | 100 to 1000 | –
– | O=C(O)CCn1cc(-c2cnc3c(c2)C(O)(C(F)(F)F)c2ccccc2-3)cn1 (stereo not shown) [compound 568] | – | 83 | < 100 | –
– | OCC(CO)(CO)n1cc(-c2cccc3c2-c2ccccc2C3(O)C(F)(F)F)cn1 (single isomer, unassigned) [compound 706] | < 100 | 31 | – | –
– | Cn1cc(-c2cc(OCCC34CC5CC(CC(O)(C5)C3)C4)cc3c2-c2ccccc2C3(O)C(F)(F)F)cn1 (single isomer, unassigned) [compound 540] | – | 16 | < 100 | –
– | O=C(O)c1ccc(-c2cc(Cl)c3c(c2)C(O)(C(F)(F)F)c2ccccc2-3)cc1 (stereo not shown) [compound 234] | – | 58 | < 100 | –
– | Cn1nnc(-c2cccc3c2-c2ccccc2C3(O)C(F)(F)F)n1 (stereo not shown) [compound 250] | – | 1610 | > 1000 | –
– | COC(=O)Nc1cccc2c1-c1ccccc1C2(O)C(F)(F)F (stereo not shown) [compound 130] | – | > 10000 | > 1000 | –

IC50 (PDHK inhibitory activity IC50 (μmol/L)) [nM] | Compound | IC50 [1] [nM] | IC50 [2] [nM] | IC50 [3] [nM] | IC50 (read-out: PDHK inhibitory activity (class symbol)) [nM]
– | COC(=O)c1ccc2c(c1)C(O)(C(F)(F)F)c1ccccc1-2 (stereo not shown) [compound 23] | – | 571 | 100 to 1000 | –
– | Cc1ccncc1-c1cccc2c1-c1ccccc1C2(O)C(F)(F)F (stereo not shown) [compound 204] | – | > 10000 | > 1000 | –
22 | OC1(Cn2cc(-c3cc(F)cc4c3-c3ccccc3[C@]4(O)C(F)(F)F)cn2)CCCCC1 (stereo in doubt) [compound 544] | – | – | < 100 | –
– | CC(C)(CC(=O)O)n1cc(-c2cc(F)cc3c2-c2ccccc2C3(O)C(F)(F)F)cn1 (single isomer, unassigned) [compound 610] | < 100 | 41 | – | –
– | COc1nc2c(cc1C(=O)N1CCC1)C(O)(C(F)(F)F)c1ccccc1-2 (stereo not shown) [compound 235] | – | 803 | 100 to 1000 | –
– | CNC(=O)c1ccc2c(c1)-c1ccccc1C2(O)C(F)(F)F (stereo not shown) [compound 43] | – | 3920 | > 1000 | –
– | CNC(=O)c1ccc2c(c1)C(O)(C(F)(F)F)c1ccccc1-2 (stereo not shown) [compound 30] | – | 8610 | > 1000 | –
– | COC(=O)c1ccc(F)c2c1-c1ccccc1C2(O)C(F)(F)F (stereo not shown) [compound 221] | – | > 10000 | > 1000 | –
– | O=C(O)c1cccc2c1-c1ccccc1C2(O)C(F)(F)F (stereo not shown) [compound 32] | – | > 100000 | > 1000 | –
– | CCc1cc(C(N)=O)c2c(c1)C(O)(C(F)(F)F)c1ccccc1-2 (stereo not shown) [compound 633] | 100 to 1000 | 560 | – | –
– | COC(=O)C1CN(C(=O)c2ccc3c(c2)C(O)(C(F)(F)F)c2ccccc2-3)C1 (stereo not shown) [compound 120] | – | 174 | 100 to 1000 | –
– | O=C(c1ccccc1)c1ccc2c(c1)C(O)(C(F)(F)F)c1ccccc1-2 (stereo not shown) [compound 98] | – | 2420 | > 1000 | –
– | CNC(=O)c1ccc(-c2ccc3c(c2)C(O)(C(F)(F)F)c2ccccc2-3)cc1Cl (stereo not shown) [compound 240] | – | 149 | 100 to 1000 | –
– | CN(C)C1CCN(C(=O)c2ccc3c(c2)C(O)(C(F)(F)F)c2ccccc2-3)C1 (stereo not shown) [compound 216] | – | 2560 | > 1000 | –
– | CN(C)C(=O)c1ccc2c(c1)C(O)(C(F)(F)F)c1ccccc1-2 (stereo not shown) [compound 31] | – | 1350 | > 1000 | –
– | O=C(O)CCCOc1cc(-c2cccnc2)c2c(c1)C(O)(C(F)(F)F)c1ccccc1-2 (single isomer, unassigned) [compound 561] | – | 50 | < 100 | –
– | O=C(c1cccc2c1-c1ccccc1C2(O)C(F)(F)F)N1CC1 (stereo not shown) [compound 111] | – | > 10000 | > 1000 | –
– | OCc1cc(Cl)cc2c1-c1ccccc1C2(O)C(F)(F)F (stereo not shown) [compound 635] | 100 to 1000 | 515 | – | –
– | CN(C(=O)c1ccc2c(c1)C(O)(C(F)(F)F)c1ccccc1-2)c1ccccc1 (stereo not shown) [compound 56] | – | > 100000 | > 1000 | –
– | CC1CN(C(=O)c2ccc3c(c2)C(O)(C(F)(F)F)c2ccccc2-3)C1 (stereo not shown) [compound 88] | – | 2530 | > 1000 | –
– | O=C(c1ccc2c(c1)C(O)(C(F)(F)F)c1ccccc1-2)N1CC(O)C1 (stereo not shown) [compound 79] | – | 696 | 100 to 1000 | –
– | OC1(C(F)(F)F)c2ccccc2-c2c(-c3ccccn3)cccc21 (stereo not shown) [compound 134] | – | > 10000 | > 1000 | –
– | NC(=O)Cc1ccc2c(c1)C(O)(C(F)(F)F)c1ccccc1-2 (stereo not shown) [compound 403] | – | > 10000 | > 1000 | –

IC50 (PDHK inhibitory activity IC50 (μmol/L)) [nM] | Compound | IC50 [1] [nM] | IC50 [2] [nM] | IC50 [3] [nM] | IC50 (read-out: PDHK inhibitory activity (class symbol)) [nM]
– | OCCCCCCOc1ccc2c(c1)C(O)(C(F)(F)F)c1ccccc1-2 (stereo not shown) [compound 298] | – | 177 | 100 to 1000 | –
– | CC(C)Cn1cc(-c2cccc3c2-c2ccccc2C3(O)C(F)(F)F)cn1 (stereo not shown) [compound 386] | – | 89 | < 100 | –
– | CC(C)C(=O)Nc1ccc2c(c1)-c1ccccc1C2(O)C(F)(F)F (stereo not shown) [compound 101] | – | 10300 | > 1000 | –
– | CCn1cc(-c2cc(C(N)=O)c3c(c2)C(O)(C(F)(F)F)c2ccccc2-3)cn1 (stereo not shown) [compound 530] | – | 43 | < 100 | –
– | CC(=O)N(C)CCOc1ccc2c(c1)C(O)(C(F)(F)F)c1ccccc1-2 (stereo not shown) [compound 326] | – | 303 | 100 to 1000 | –
– | OC1(C(F)(F)F)c2ccccc2-c2c(-c3ccccc3)cccc21 (stereo not shown) [compound 126] | – | > 10000 | > 1000 | –
– | CN(C)C(=O)CCCOc1cc(-c2cncnc2)c2c(c1)C(O)(C(F)(F)F)c1ccccc1-2 (stereo not shown) [compound 429] | – | 19 | < 100 | –
– | Cn1cc(-c2cnc3c(c2)C(O)(C(F)(F)F)c2ccccc2-3)cn1 (stereo not shown) [compound 562] | – | 59 | < 100 | –
– | OC1(C(F)(F)F)c2ccccc2-c2ccc(N3CCCC3)cc21 (stereo not shown) [compound 160] | – | 2540 | > 1000 | –
– | CNC(=O)Cn1cc(-c2cc(F)cc3c2-c2ccccc2C3(O)C(F)(F)F)cn1 (stereo not shown) [compound 515] | – | 38 | < 100 | –
– | COc1cc(-c2cnn(C(C)(C)CC(=O)O)c2)c2c(c1)C(O)(C(F)(F)F)c1ccccc1-2 (single isomer, unassigned) [compound 614] | < 100 | 37 | – | –
– | O=C(NCCCCO)c1cc(-c2cncnc2)c2c(c1)C(O)(C(F)(F)F)c1ccccc1-2 (stereo not shown) [compound 371] | – | 617 | 100 to 1000 | –
– | COc1ccc(-c2ccc3c(c2)C(O)(C(F)(F)F)c2ccccc2-3)cc1 (stereo not shown) [compound 172] | – | 779 | 100 to 1000 | –
– | CN(C(=O)c1ccc2c(c1)C(O)(C(F)(F)F)c1ccccc1-2)C1CCC1 (stereo not shown) [compound 57] | – | 5620 | > 1000 | –
– | COC(=O)c1cc(Br)c2c(c1)C(O)(C(F)(F)F)c1ccccc1-2 (stereo not shown) [compound 472] | – | 184 | 100 to 1000 | –
– | CCOc1ccc2c(c1)-c1ccccc1C2(O)C(F)(F)F (stereo not shown) [compound 67] | – | 4200 | > 1000 | –
– | COc1cc(-c2cnn(CCO)c2)c2c(c1)C(O)(C(F)(F)F)c1ccccc1-2 (stereo not shown) [compound 458] | – | 39 | < 100 | –
– | O=C(COc1ccc2c(c1)C(O)(C(F)(F)F)c1ccccc1-2)NCCO (stereo not shown) [compound 365] | – | 1330 | > 1000 | –
– | OC1(C(F)(F)F)c2ccccc2-c2cccc(F)c21 (stereo not shown) [compound 13] | – | 15900 | > 1000 | –
– | OCCn1cc(-c2cc(F)cc3c2-c2ccccc2C3(O)C(F)(F)F)cn1 (stereo not shown) [compound 505] | – | 46 | < 100 | –
– | Cn1cc(-c2cc(OCC(=O)N3CC(CO)C3)cc3c2-c2ccccc2C3(O)C(F)(F)F)cn1 (stereo not shown) [compound 439] | – | 34 | < 100 | –
– | OC1(C(F)(F)F)c2ccccc2-c2ccc(-c3cnco3)cc21 (stereo not shown) [compound 245] | – | 190 | 100 to 1000 | –

Reference: US8871934B2, “Fluorene compound and pharmaceutical use thereof” (Japan Tobacco Inc., priority 2008, dated 2014)
